Experimental data from US20260176269A1, “ANTICOAGULANT HEPARIN OLIGOSACCHARIDE PHENYL-LINKED DIMER, PREPARATION METHOD THEREFOR AND USE THEREOF” (SHANDONG UNIVERSTIY, priority 2022, published 2026).

Assays:
Factor Xa [1] = assay: anti-Factor Xa activity, chromogenic substrate assay; type: biochemical
Factor Xa [2] = assay: neutralization of anti-Factor Xa activity by protamine sulfate, chromogenic substrate method; type: biochemical; conditions: different concentrations of protamine sulfate
Excerpt: Therefore, the phenyl-linked heparin hexasaccharide dimer I-1-1 prepared by the present disclosure is a novel heparin analog whose anticoagulant activity may be neutralized by protamine sulfate.

[3] = in vivo pharmacokinetics after subcutaneous injection in rats; conditions: rat
Procedure: Both Fondaparinux and the phenyl-linked heparin hexasaccharide dimer I-1-1 were injected subcutaneously into Wister male rats weighing 200±20 g (n≥3) at a dose of 300 IU/kg. Blood samples were collected from the jugular vein of rats at 0, 0.5, 0.75, 1, 1.25, 1.5, 1.75, 2, 2.5, 3, 4, 8, 12 and 24 hours respectively (based on the actual blood collection time). After the blood samples were centrifuged at 5000 r/min for 15 minutes, the supernatant was taken to determine the anti-Factor Xa activity by the above method, and the residual concentrations of Fondaparinux and the phenyl-linked heparin hexasaccharide dimer I-1-1 in rats were calculated. The drug concentration vs. time curve was drawn.

Factor Xa [4] = assay: anti-Factor Xa titer against low molecular weight heparin standard curve, chromogenic substrate method; type: biochemical
Factor II a = assay: anti-Factor IIa activity, chromogenic substrate method; type: biochemical; conditions: data not shown

SMILES: O=C(O)C1OC(OC2C(COS(=O)(=O)O)OC(OC3C(C(=O)O)OC(OC4C(COS(=O)(=O)O)OC(OC5C(C(=O)O)OC(Oc6ccc(OC7OC(C(=O)O)C(OC8OC(COS(=O)(=O)O)C(OC9OC(C(=O)O)C(OC%10OC(COS(=O)(=O)O)C(OC%11OC(C(=O)O)C(OC%12OC(COS(=O)(=O)O)C(O)C(O)C%12NS(=O)(=O)O)C(O)C%11O)C(OS(=O)(=O)O)C%10NS(=O)(=O)O)C(O)C9OS(=O)(=O)O)C(O)C8NS(=O)(=O)O)C(O)C7O)cc6)C(O)C5O)C(NS(=O)(=O)O)C4O)C(OS(=O)(=O)O)C3O)C(NS(=O)(=O)O)C2OS(=O)(=O)O)C(O)C(O)C1OC1OC(COS(=O)(=O)O)C(O)C(O)C1NS(=O)(=O)O (centres unmarked) [Compound I-1-1]
- IC50 value of the anti-Factor Xa activity (Factor Xa [1]; mass concentration): 0.02815 µg/mL
- IC50 (Factor Xa [1]; molar concentration): 7.2 nM
- neutralization of in vitro anti-Factor Xa activity by protamine sulfate (Factor Xa [2]): almost completely reversed
- t1/2 ([3]; male, Wister, in vivo, sc): 2.269 h
- in vivo half-life (comparison in words) ([3]; in vivo): comparable to that of commercially available Fondaparinux
- titer (Factor Xa [4]): 1,121.5 IU/mg
- anti-Factor IIa activity (Factor II a): no significant anti-Factor Ha activity

SMILES: CO[C@H]1O[C@H](COS(=O)(=O)O)[C@@H](O[C@@H]2O[C@@H](C(=O)O)[C@@H](O[C@H]3O[C@H](COS(=O)(=O)O)[C@@H](O[C@@H]4O[C@H](C(=O)O)[C@@H](O[C@H]5O[C@H](COS(=O)(=O)O)[C@@H](O)[C@H](O)[C@H]5NS(=O)(=O)O)[C@H](O)[C@H]4O)[C@H](OS(=O)(=O)O)[C@H]3NS(=O)(=O)O)[C@H](O)[C@H]2OS(=O)(=O)O)[C@H](O)[C@H]1NS(=O)(=O)O [Fondaparinux, reference compound]
- half-life ([3]; male, Wister, plasma, sc, 300 IU/kg): 2.17 h
